In US20190343801A1, “COMPOSITIONS AND METHODS FOR CONTROLLING NATURAL KILLER CELL ACTIVATION AND FUNCTION” (BAR ILAN UNIVERSITY, priority 2017, published 2019):
Structures can show the parent of a compound that is named as a salt.

Tested on: YTS F-tractin GFP cells
Test: NKIS area of YTS F-tractin GFP cells spread over antibody-coated coverslips
Format: cell-based
Conditions: 25 μM Y-27 or 1 μM JAS; anti-CD28 or anti-KIR1
Procedure: FIGS. 5E-5H. show analyses of NKIS area and ARF in the activating vs. inhibitory NKIS in the presence of Y-27632 (Y-27) inhibitor of myosin light chain (MLC) phosphorylation and/or JAS. In FIG. 5E is live cell imaging of YTS-2DL1 cells expressing F-tractin GFP treated with 25 μM Y-27 (anti-CD28: n=6 movies; anti-KIR1: n=6 movies). […] In FIG. 5F are YTS F-tractin GFP cells treated with 25 μM Y-27 or left untreated. Cells were seeded over coverslips pre-coated with anti-CD28 or anti-KIR1 and allowed to spread at 37° C. for 10 min before fixation, and 1 μM JAS was added 5 min after initial spreading. NKIS area was determined using ImageJ. […]
Chambered cover glasses (LabTek) were cleaned by treatment with 1 M HCl, 70% ethanol for 30 min and dried at 60° C. for 30 min. […] The NK and target cells in the conjugates were distinguished based on fluorescence signal, in which the target cells expressed mCherry and the NK cells expressed various YFP, CFP or GFP tagged proteins. […] The relative fluorescence intensity of the proteins at the synapse was determined by measuring the ratio between fluorescence intensity at the NKIS relative to a non-NKIS site using ImageJ. […]

For `C[C@@H](N)C1CCC(C(=O)Nc2ccncc2)CC1` (stereo partly drawn) [Formula Y-27, 4-[(1R)-1-aminoethyl]-N N-4-pyridinyl-trans-cyclohexanecarboxamide, dihydrochloride], the “NKIS area / NK contact area” value was “significantly enlarged NKIS area”.
